Each structure is given as a SMILES string. Active and inactive are the calls of the source. The calls are words filed in the database; no cut-off is given here. Residues, ends and D or L forms follow the SMILES beside them. *: point of attachment. X2 = CCCCCCCCCCCCCNC(=O)CCC*; X1 = CCCCCCCCCCNC(=O)CCC* Some results are limits rather than exact numbers.

By IC50 is commonly meant the concentration needed to halve the response being measured. High values mean weaker potency in that assay, low ones greater potency in that assay. As a reminder, the inhibition is the percentage by which the read-out fell short of the control.

Assay [1] addresses T1, NAD-dependent protein deacylase sirtuin-5, mitochondrial (Homo sapiens, UniProt Q9NXA8). The experiment in a line: Inhibition of human SIRT5 expressed in Escherichia coli BL21 using H3K9AcWW as substrate preincubated for 15 mins followed by substrate addition measured after 1 hr by HPLC analysis.
Target sequence in this assay (Q9NXA8 whole entry, the tested form may be a part): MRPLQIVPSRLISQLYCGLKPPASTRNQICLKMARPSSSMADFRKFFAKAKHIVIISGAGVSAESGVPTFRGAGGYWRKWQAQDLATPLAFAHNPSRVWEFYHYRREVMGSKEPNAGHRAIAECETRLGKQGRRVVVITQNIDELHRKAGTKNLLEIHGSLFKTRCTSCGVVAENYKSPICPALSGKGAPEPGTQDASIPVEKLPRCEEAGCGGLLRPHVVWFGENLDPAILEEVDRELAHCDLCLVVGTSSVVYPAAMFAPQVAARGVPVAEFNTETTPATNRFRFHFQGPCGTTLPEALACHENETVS
Assay [2] deals with T2, NAD-dependent protein deacylase sirtuin-6 (Homo sapiens, UniProt Q8N6T7). Kind of assay: Inhibition of human SIRT6 (1 to 294 residues) expressed in Escherichia coli Rosetta (DE3) at 250 uM using H3K9AcWW as substrate preincubated for 15 mins followed by substrate addition measured after 1 hr by HPLC analysis relative to control.
T2 sequence (Q8N6T7 whole entry, the tested form may be a part): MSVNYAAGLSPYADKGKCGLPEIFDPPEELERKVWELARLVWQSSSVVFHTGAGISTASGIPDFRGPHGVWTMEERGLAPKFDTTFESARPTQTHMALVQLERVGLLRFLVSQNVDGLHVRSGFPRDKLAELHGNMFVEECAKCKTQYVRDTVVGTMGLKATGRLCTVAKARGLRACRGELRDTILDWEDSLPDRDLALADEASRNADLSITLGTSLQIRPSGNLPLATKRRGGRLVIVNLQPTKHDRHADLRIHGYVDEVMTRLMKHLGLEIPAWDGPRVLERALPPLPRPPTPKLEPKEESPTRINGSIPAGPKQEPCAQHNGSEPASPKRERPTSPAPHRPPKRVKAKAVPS
Assay [3] is filed under the species Homo sapiens. The experiment in a line: Selectivity ratio of IC50 for human SIRT3 expressed in Escherichia coli BL21 to IC50 for human N-terminal His6-SUMO-tagged SIRT2 (38 to 356 residues) expressed in Escherichia coli BL21.
The target in assay [4] is T1, NAD-dependent protein deacylase sirtuin-5, mitochondrial. The experiment in a line: Inhibition of human SIRT5 expressed in Escherichia coli BL21 at 250 uM using H3K9AcWW as substrate preincubated for 15 mins followed by substrate addition measured after 1 hr by HPLC analysis relative to control.
Target sequence in this assay (Q9NXA8 37-310 limits assumed): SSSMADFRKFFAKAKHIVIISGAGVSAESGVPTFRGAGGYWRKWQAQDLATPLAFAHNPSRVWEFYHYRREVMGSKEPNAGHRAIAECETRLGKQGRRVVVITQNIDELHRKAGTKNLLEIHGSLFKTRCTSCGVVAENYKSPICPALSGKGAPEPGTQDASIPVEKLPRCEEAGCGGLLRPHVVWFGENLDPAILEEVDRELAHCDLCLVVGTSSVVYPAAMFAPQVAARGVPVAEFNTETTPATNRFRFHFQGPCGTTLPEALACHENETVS
Assay [5] addresses T3, NAD-dependent protein deacetylase sirtuin-1 (Homo sapiens, UniProt Q96EB6).
T3 sequence (Q96EB6 whole entry): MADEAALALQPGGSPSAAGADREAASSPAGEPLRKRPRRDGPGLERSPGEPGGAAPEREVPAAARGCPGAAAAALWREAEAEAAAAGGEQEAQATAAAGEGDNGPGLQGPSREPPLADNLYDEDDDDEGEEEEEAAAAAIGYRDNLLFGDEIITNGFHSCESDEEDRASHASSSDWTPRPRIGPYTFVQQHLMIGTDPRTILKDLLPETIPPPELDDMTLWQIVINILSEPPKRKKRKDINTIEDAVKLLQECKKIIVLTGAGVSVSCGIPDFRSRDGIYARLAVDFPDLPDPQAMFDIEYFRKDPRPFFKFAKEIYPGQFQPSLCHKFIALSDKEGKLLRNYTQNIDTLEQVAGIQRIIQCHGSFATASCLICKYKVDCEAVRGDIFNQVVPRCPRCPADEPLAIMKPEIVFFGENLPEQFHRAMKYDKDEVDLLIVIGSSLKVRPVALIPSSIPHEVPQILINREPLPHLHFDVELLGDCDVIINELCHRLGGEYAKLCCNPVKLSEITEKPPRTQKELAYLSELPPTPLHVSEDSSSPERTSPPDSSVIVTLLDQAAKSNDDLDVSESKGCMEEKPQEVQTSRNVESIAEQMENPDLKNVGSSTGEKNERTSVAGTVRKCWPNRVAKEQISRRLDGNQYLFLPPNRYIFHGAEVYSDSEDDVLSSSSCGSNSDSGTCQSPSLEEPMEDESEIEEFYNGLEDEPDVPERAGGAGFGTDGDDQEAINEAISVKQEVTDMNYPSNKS
The experiment in a line: Inhibition of human SIRT1 expressed in Escherichia coli BL21 using H3K9AcWW as substrate preincubated for 15 mins followed by substrate addition measured after 1 hr by HPLC analysis.

For assay [6], the target named is T4, NAD-dependent protein deacetylase sirtuin-2 (Homo sapiens) (UniProt Q8IXJ6).
T4 sequence (whole entry): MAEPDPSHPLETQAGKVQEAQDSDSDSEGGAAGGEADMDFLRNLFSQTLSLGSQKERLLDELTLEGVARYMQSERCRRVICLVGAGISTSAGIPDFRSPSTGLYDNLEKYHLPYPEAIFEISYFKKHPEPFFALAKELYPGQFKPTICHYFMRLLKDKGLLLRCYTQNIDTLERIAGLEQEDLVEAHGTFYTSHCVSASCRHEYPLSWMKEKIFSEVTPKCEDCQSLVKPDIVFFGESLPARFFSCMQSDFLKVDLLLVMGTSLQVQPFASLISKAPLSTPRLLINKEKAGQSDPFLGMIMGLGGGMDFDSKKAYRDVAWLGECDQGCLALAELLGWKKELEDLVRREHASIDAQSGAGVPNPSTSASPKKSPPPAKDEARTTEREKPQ
Kind of assay: Competitive inhibition of human N-terminal His6-SUMO-tagged SIRT2 (38 to 356 residues) expressed in Escherichia coli BL21 at 5 to 10 uM using H3K9AcWW as substrate assessed as increase in substrate Km preincubated for 15 mins followed by substrate addition measured after 1 hr by double-reciprocal plot analysis.

Assay [7] is filed under the species Homo sapiens. Kind of assay: Selectivity ratio of IC50 for human SIRT1 expressed in Escherichia coli BL21 to IC50 for human N-terminal His6-SUMO-tagged SIRT2 (38 to 356 residues) expressed in Escherichia coli BL21.
Assay [8] is filed under the species Homo sapiens. Kind of assay: Selectivity ratio of IC50 for human SIRT6 (1 to 294 residues) expressed in Escherichia coli Rosetta (DE3) to human N-terminal His6-SUMO-tagged SIRT2 (38 to 356 residues) expressed in Escherichia coli BL21.
Assay [9] addresses T4, NAD-dependent protein deacetylase sirtuin-2 (Homo sapiens). The experiment in a line: Inhibition of human N-terminal His6-SUMO-tagged SIRT2 (38 to 356 residues) expressed in Escherichia coli BL21 at 250 uM using H3K9AcWW as substrate preincubated for 15 mins followed by substrate addition measured after 1 hr by HPLC analysis relative to control.
Assay [10] is filed under the species Homo sapiens. The experiment in a line: Selectivity ratio of IC50 for human SIRT5 expressed in Escherichia coli BL21 to IC50 for human N-terminal His6-SUMO-tagged SIRT2 (38 to 356 residues) expressed in Escherichia coli BL21.
In assay [11] the target is T5, NAD-dependent protein deacetylase sirtuin-1 (Homo sapiens) (UniProt Q96EB6).
T5 sequence (whole entry): T3 sequence (Q96EB6 whole entry)
Kind of assay: Inhibition of human SIRT1 expressed in Escherichia coli BL21 at 250 uM using H3K9AcWW as substrate preincubated for 15 mins followed by substrate addition measured after 1 hr by HPLC analysis relative to control.

For assay [12], the target named is T2, NAD-dependent protein deacylase sirtuin-6. The experiment in a line: Inhibition of human SIRT6 (1 to 294 residues) expressed in Escherichia coli Rosetta (DE3) using H3K9AcWW as substrate preincubated for 15 mins followed by substrate addition measured after 1 hr by HPLC analysis.
The target of assay [13] is T6, NAD-dependent protein deacetylase sirtuin-2 (Homo sapiens, UniProt Q8IXJ6).
T6 sequence (Q8IXJ6 whole entry): T4 sequence (whole entry)
The experiment in a line: Inhibition of human N-terminal His6-SUMO-tagged SIRT2 (38 to 356 residues) expressed in Escherichia coli BL21 using H3K9AcWW as substrate preincubated for 15 mins followed by substrate addition measured after 1 hr by HPLC analysis.

Assay [14] concerns the target T7, NAD-dependent protein deacetylase sirtuin-3, mitochondrial (Homo sapiens, UniProt Q9NTG7).
T7 sequence (Q9NTG7 whole entry): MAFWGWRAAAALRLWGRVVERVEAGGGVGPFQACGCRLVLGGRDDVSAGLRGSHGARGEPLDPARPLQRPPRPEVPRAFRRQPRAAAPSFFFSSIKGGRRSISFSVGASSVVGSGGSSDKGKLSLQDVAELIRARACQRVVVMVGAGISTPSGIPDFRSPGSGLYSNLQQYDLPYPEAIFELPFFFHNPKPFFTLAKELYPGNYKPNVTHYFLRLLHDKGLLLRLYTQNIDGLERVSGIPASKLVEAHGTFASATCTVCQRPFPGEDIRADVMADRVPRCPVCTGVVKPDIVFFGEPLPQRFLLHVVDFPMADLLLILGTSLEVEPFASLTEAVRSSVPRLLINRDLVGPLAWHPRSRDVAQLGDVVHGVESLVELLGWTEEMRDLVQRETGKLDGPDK
The experiment in a line: Inhibition of human SIRT3 expressed in Escherichia coli BL21 using H3K9AcWW as substrate preincubated for 15 mins followed by substrate addition measured after 1 hr by HPLC analysis.

Consider `CCCCCCCCCCNC(=O)CCCSC[C@H](NC(=O)[C@H](CCCNC(=N)N)NC(=O)[C@H](C)NC(=O)[C@@H](NC(=O)[C@H](CCC(N)=O)NC(=O)[C@@H](N)CCCCN)[C@@H](C)O)C(=O)N[C@@H](CO)C(=O)N[C@H](C(=O)NCC(=O)NCC(=O)N[C@@H](CCCCN)C(=O)O)[C@@H](C)O` (H-KQTARC(X1)STGGK-OH), for which the IC50 in assay [1] is over 500 µM; in assay [5], over 200 µM; in assay [12] it was over 250 µM; in assay [13], 20 µM; in assay [14] it was over 500 µM. Further, the results for the inhibition in assay [2], in assay [9] and in assay [11] were 41%, 95% and 60%, respectively. For the same molecule, the Ratio IC50 in the assay listed under Homo sapiens [3], in the assay filed under Homo sapiens [7], in the assay filed under Homo sapiens [8] and in the assay filed under Homo sapiens [10] was over 10 in each case. For the same molecule, the inhibition result in [4] was “inactive”. For the same molecule, the inhibition result in [6] was “Active”.
With `CCCCCCCCCCCCCNC(=O)CCCSC[C@H](NC(=O)[C@H](CCCNC(=N)N)NC(=O)[C@H](C)NC(=O)[C@@H](NC(=O)[C@H](CCC(N)=O)NC(=O)[C@@H](N)CCCCN)[C@@H](C)O)C(=O)N[C@@H](CO)C(=O)N[C@H](C(=O)NCC(=O)NCC(=O)N[C@@H](CCCCN)C(=O)O)[C@@H](C)O` (H-KQTARC(X2)STGGK-OH), the concentration for half-maximal inhibition (IC50) in assay [1] was over 50 µM; in assay [5], over 200 µM; in [12], over 20 µM; in [13], 35 µM; in assay [14] it was over 50 µM. In addition, the inhibition was 54% in [2], 87% in [9] and 67% in assay [11]. The Ratio IC50 in the assay filed under Homo sapiens [3], in the assay filed under Homo sapiens [7], in the assay filed under Homo sapiens [8] and in the assay listed under Homo sapiens [10] was 10 each time. Besides, in [4], the inhibition result was “inactive”.
